Among the data in ChEMBL document CHEMBL1201862, “PubChem BioAssay data set” (2004) are AC50 and EC50 values, retold here.

Active and inactive are the calls of the source. For most assays here, no stated cut-off is given here; in the data, actives have a measured EC50 and inactives only a lower limit.

Usually AC50 stands for the concentration giving half of the maximal activity seen.

The target in test [1] is T1, Replicative DNA helicase DnaB (Mycobacterium tuberculosis, UniProt P9WMR3).
T1 sequence (P9WMR3 whole entry): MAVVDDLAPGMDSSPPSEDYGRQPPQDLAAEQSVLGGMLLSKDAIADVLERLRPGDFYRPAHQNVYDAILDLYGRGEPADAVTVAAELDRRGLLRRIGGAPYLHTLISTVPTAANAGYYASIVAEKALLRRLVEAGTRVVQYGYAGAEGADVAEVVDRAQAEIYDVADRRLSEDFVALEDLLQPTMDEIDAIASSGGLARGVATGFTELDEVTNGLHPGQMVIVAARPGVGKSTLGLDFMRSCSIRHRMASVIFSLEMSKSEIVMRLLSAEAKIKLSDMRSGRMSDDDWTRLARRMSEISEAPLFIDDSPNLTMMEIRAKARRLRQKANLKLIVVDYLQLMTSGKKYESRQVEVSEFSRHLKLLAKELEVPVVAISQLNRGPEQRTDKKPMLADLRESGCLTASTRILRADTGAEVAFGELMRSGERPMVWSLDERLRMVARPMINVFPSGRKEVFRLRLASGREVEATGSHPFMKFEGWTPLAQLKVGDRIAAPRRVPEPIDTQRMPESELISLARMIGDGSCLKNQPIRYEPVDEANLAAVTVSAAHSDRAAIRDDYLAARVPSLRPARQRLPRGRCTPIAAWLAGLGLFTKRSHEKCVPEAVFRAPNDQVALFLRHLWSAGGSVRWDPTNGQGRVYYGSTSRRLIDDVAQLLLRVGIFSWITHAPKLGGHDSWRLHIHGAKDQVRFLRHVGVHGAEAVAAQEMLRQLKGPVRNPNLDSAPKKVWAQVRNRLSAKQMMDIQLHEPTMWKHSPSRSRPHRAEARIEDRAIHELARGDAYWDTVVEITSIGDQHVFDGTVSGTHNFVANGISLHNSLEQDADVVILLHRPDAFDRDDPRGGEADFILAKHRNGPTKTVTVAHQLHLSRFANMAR
Kind of test: DnaB intein splicing inhibitors, dose response, biochemical, cell-free fluorescence (AID 449749). The format is functional.

Test [2] has as its target T2, Protein RecA (Mycobacterium tuberculosis, UniProt P9WHJ3).
T2 sequence (P9WHJ3 whole entry): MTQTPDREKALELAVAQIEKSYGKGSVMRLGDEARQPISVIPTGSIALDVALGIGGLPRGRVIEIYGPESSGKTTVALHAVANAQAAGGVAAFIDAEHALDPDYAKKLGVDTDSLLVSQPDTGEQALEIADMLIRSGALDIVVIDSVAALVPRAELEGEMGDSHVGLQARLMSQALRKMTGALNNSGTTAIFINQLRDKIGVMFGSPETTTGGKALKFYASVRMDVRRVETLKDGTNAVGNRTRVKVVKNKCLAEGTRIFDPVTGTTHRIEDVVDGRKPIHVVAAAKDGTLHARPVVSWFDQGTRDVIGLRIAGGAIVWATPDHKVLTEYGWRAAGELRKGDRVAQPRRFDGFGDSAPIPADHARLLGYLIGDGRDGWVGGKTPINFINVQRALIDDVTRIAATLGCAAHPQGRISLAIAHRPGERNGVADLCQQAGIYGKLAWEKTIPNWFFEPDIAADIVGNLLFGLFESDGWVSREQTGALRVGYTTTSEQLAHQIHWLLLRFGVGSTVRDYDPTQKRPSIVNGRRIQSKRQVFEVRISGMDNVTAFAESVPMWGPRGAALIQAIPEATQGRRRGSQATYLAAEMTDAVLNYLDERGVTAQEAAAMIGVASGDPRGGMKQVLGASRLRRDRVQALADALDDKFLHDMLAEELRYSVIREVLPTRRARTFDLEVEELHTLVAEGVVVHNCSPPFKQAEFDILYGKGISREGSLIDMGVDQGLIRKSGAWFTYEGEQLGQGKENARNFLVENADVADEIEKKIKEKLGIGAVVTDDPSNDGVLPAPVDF
Kind of test: Fluorescence Cell-Free Homogeneous Dose Retest to Identify Inhibitors of RecA-Intein Splicing Activity. [Related pubchem assays (depositor defined):AID2097, AID2223, AID489010, AID492950]. The format is functional.

Test [3] deals with Streptococcus sp. 'group A'. The test can be described thus: growth inhibition of control SK(-) GAS strain, dose response, counter-screen for streptokinase expression inhibitor project, luminescence, kanamycin, BacTiterGlo, confirmation (AID 1900). The format is functional, organism-based. (In general: Counterscreens check selectivity or assay interference.)
Test [4] addresses T3, Streptokinase A (Streptococcus pyogenes serotype M1, UniProt P10520).
T3 sequence (P10520 whole entry): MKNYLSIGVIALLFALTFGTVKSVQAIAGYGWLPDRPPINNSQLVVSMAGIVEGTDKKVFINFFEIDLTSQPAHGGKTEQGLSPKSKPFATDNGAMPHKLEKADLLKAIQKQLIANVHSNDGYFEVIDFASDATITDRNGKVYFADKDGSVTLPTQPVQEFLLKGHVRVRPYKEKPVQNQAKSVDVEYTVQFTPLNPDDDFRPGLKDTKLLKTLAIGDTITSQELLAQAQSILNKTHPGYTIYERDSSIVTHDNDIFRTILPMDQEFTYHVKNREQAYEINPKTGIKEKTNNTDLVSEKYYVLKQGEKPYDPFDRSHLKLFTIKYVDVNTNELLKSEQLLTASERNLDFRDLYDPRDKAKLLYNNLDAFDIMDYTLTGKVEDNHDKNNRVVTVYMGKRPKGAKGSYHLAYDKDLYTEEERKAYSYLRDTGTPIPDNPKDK
The test can be described thus: S. pyogenes streptokinase expression inhibitors, potency, dose response, plasminogen activation absorbance, OD405 (AID 1914).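 Further: secreted streptokinase activity via plasminogen activation per viability signal from cell pellet.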 Type of test: functional, Streptococcus pyogenes M1 GAS.

For test [5], the system named is Streptococcus. Kind of test: Group A Streptococcus viability loss, dose response, counter-screen for streptokinase expression inhibitor project, luminescence, BacTiterGlo (AID 1915).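 Further: potency for reduction of bacterial viability or growth.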 The format is functional, organism-based. The following applies: read-out: EC50.
A short description of test [6]: Shn3 3'UTR reporter inhibitors, dose response, cell-based, Clone20 osteoblasts, firefly luciferase, cherry-picked (AID 624132).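 Further: firefly luciferase luminescence from reporter carrying the Shn3 3'UTR in osteoblasts.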 The format is functional.
The target of test [7] is Cytochrome P450 2D6 (Homo sapiens, UniProt P10635).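 Further: CYP2D6 member of a cytochrome P450 panel assay.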
Test [8] addresses T4, Heat shock factor protein 1 (Mus musculus, UniProt P38532).
T4 sequence (P38532 whole entry): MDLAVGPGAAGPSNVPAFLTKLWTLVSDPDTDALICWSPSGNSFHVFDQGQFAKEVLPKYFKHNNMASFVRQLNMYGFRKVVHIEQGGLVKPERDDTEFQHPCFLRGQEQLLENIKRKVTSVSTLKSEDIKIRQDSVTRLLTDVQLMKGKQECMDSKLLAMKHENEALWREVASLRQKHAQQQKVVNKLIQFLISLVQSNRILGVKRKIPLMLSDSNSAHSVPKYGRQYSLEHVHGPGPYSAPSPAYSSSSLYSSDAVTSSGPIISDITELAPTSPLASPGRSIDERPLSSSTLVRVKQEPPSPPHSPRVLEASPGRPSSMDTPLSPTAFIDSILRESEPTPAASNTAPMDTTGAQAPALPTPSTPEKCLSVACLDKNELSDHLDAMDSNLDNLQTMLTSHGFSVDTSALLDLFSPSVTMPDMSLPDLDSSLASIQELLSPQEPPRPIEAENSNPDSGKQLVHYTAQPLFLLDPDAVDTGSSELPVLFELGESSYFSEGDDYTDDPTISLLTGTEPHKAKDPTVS
Kind of test: inhibition of MG132-induced HSE-luciferase signal, confirmation, cell-based, NIH3T3, luminescence, dose retest (AID 2382).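 Further: NIH3T3 fibroblasts with HSF1-driven luciferase reporter stressed by proteasome inhibitor MG132; luminescence from HSF1-driven luciferase expression after 8 hours of MG132 stress.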 Type of test: functional.

Test [9] concerns the target T5, Corticotropin-releasing factor receptor 2/Corticotropin-releasing factor-binding protein (Homo sapiens, UniProt P24387+Q13324).
T5 sequence (Q13324 whole entry): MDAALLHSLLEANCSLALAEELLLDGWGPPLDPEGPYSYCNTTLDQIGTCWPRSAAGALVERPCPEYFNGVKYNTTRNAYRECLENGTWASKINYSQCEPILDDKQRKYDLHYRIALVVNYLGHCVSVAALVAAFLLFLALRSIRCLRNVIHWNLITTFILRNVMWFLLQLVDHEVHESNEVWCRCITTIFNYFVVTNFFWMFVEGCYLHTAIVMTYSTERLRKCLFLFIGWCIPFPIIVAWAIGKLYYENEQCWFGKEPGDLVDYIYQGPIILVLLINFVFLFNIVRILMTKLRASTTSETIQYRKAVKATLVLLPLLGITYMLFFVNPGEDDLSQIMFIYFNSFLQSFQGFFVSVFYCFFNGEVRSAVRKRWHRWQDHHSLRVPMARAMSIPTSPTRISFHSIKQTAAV
T5 sequence (P24387 whole entry): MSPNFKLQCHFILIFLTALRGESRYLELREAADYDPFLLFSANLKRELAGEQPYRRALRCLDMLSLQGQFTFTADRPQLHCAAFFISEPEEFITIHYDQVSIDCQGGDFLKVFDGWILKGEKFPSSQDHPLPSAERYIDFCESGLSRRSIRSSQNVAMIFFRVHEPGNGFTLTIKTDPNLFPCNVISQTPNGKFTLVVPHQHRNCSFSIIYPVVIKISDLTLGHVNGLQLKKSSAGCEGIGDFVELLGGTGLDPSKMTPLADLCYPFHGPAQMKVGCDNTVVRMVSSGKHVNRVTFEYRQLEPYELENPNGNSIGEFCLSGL
The test can be described thus: activators of CRF receptor 2 with binding protein – uHTS hits, confirmation (AID 602473). Type of test: functional. The following applies: read-out: EC50_Mean.

A short description of test [10]: Luminescence Cell-Based Dose Retest to Confirm Inhibitors of Cancer Stem Cells. [Related pubchem assays (depositor defined):AID2717, AID2721]. The format is functional. The following applies: Homo sapiens.

Sequence of Cytochrome P450 2D6 (P10635 whole entry): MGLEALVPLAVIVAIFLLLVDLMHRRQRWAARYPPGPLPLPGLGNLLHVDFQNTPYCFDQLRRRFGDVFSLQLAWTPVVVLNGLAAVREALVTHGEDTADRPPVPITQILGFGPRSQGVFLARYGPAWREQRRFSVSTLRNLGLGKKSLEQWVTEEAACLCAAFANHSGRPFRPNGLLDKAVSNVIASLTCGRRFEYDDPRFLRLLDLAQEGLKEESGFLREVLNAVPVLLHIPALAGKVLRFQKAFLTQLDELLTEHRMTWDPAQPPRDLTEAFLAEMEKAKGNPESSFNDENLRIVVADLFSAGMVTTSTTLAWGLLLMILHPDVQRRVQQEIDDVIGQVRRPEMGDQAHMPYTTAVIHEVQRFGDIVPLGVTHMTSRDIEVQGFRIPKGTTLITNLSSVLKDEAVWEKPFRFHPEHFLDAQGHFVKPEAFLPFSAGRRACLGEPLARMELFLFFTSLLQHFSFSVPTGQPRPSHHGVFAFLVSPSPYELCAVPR

On to `Cn1c(-[n+]2c(-c3ccccc3)cc(-c3ccccc3)cc2-c2ccccc2)nc2c([N+](=O)[O-])cccc21`, for which the AC50 in [1] was 15.3 µM (active). For the same molecule, the EC50 in test [2] was 15.3 µM (active).
On to `Cc1cccc(Cc2cnc(NC(=O)c3ccc(C)o3)s2)c1`, for which the EC50 in [3] was 16.6 µM (active); in [4], > 150 µM (not active); in [5], > 150 µM (not active).
As to `O=C(Nc1ccc(Cl)c(Cl)c1)N1CC=C(c2ccccc2)CC1`, the EC50 in test [3] was 9.92 µM (active); in [4], 11.9 µM (active); in test [5], 21 µM (active).
On to `COc1ccc(C(=O)NNC(=O)c2cccc(S(=O)(=O)N3CCOCC3)c2)cc1`, for which the AC50 in [6] is 23.2 µM (active).
In the case of `COc1ccc(-c2csc(Nc3ccc(O)cc3)n2)cc1`, in test [1], the AC50 was 37.2 µM (active). In addition, in test [2], the EC50 is 123 µM (active).
Turning to `CNC(C)(C)Cc1ccccc1` [MEPHENTERMINE], the AC50 in test [7] is 10 µM (inconclusive).
As to `CCOc1cc(C(c2c(C)n[nH]c2O)c2c(C)n[nH]c2O)cc(Br)c1OC`, the EC50 was > 195 µM (not active) in [8] and 0.231 µM (active) in [2]. The AC50 in test [1] was 0.417 µM (active).
Take `CCN(CC)S(=O)(=O)c1ccc(NN=C(C#N)C#N)cc1`: the AC50 in test [1] is 5.03 µM (active). In test [2], the EC50 was 15 µM (active).
On to `Cc1cc(NC(=O)CC2CCCC2)n(-c2nc3ccccc3[nH]2)n1`, for which the EC50 in [3] is 6.41 µM (active); in [4] it was > 150 µM (not active); in [5] it was > 150 µM (not active).
With `O=C(NC1C(=O)NNC1c1ccc(Cl)cc1)c1ccc(F)cc1` (stereo not drawn), the AC50 in [1] was 13.1 µM (active). The EC50 in test [2] was 4.94 µM (active).
In the case of `CC(=O)NC(=S)c1c(N)n(Cc2ccccc2)c(=O)n(C)c1=O`, the AC50 in test [1] is > 380 µM (inactive). Moreover, in test [2], the EC50 is > 380 µM (inconclusive).
For `CC1=NNC(=O)C1C(c1cccc(O)c1)C(C#N)C#N` (stereo not drawn) the same measures were 28.3 µM (active) and 12.7 µM (active).
Take `Cn1c(=O)c(C(=O)COc2ccc(C#N)cc2)c(N)n(Cc2ccccc2)c1=O`: the EC50 in [9] is 10.9 µM (active).
Turning to `CC(=O)c1c(C)c2c(n1CCN(C)C)CCCC2`, the EC50 in [9] was 2.74 µM (active).
On to `O=C(/C=C/c1ccco1)NC(=S)Nc1ccc(N2CCOCC2)c(Cl)c1`, for which the values for the EC50 in [3], in test [4] and in [5] were 109 µM (active), > 150 µM (not active) and 54.4 µM (active), respectively.
Turning to `Oc1nc(CN2CC=C(c3ccccc3)CC2)nc2scc(-c3ccccc3)c12`, the EC50 is 7.76 µM (active) in [3], > 150 µM (not active) in [4] and 50.3 µM (active) in [5]. The AC50 in [10] was 2.56 µM (active).
As to `Cc1cc(C(=O)c2ccccc2)c(NC(=O)CCl)s1`, in test [1], the concentration at half-maximal activity (AC50) was 14.2 µM (active). Further, in [2], the EC50 is 2.83 µM (active).
As to `COc1ccc2cc(C(=O)NCc3ccccc3)/c(=N/c3ccc(C(=O)O)cc3)oc2c1`, the EC50 in test [3] was 10.2 µM (active); in [4] it was > 150 µM (not active); in test [5], 22.4 µM (active).
On to `Cc1cc(C)c(-c2cc(NC(=O)COC(=O)c3ccc(CO)cc3)n(-c3ccccc3)n2)cc1C`, for which the EC50 in test [3] is 5.49 µM (active); in test [4], 48.4 µM (active); in test [5] it was 32.4 µM (active).
`C[C@]12CC[C@@H](O)C[C@@H]1CC[C@@H]1[C@@H]2CC[C@]2(C)C(=O)CC[C@@H]12` [ANDROSTERONE]: the AC50 in test [6] was 40.1 µM (active).
As for `c1ccc(-c2oc3ncnc(NCCCn4ccnc4)c3c2-c2ccccc2)cc1`, the EC50 in test [3] was 23.4 µM (active); in [4], > 150 µM (not active); in [5] it was > 150 µM (not active).
With `O=C(Nc1ccccc1)c1ccccc1NC(=O)C(F)(F)F`, the EC50 in test [9] was > 53 µM (inactive).
